Test results: ChEMBL document CHEMBL5465560, “Selectivity Literature for EUbOPEN Chemogenomic Library” (2024)

Columns and labels:
[1] = target: Serine/threonine-protein kinase 32B (Homo sapiens) (UniProt Q9NY57); test: Selectivity interaction (KinomeScan (DiscoverX)) EUB0000229b STK32B; details: at 10 µM
[2] = target: T1, Mitogen-activated protein kinase kinase kinase 5 (Homo sapiens) (UniProt Q99683); test: Selectivity interaction (KinomeScan (DiscoverX)) EUB0000595a MAP3K5; details: at 10 µM
T1 sequence (whole entry): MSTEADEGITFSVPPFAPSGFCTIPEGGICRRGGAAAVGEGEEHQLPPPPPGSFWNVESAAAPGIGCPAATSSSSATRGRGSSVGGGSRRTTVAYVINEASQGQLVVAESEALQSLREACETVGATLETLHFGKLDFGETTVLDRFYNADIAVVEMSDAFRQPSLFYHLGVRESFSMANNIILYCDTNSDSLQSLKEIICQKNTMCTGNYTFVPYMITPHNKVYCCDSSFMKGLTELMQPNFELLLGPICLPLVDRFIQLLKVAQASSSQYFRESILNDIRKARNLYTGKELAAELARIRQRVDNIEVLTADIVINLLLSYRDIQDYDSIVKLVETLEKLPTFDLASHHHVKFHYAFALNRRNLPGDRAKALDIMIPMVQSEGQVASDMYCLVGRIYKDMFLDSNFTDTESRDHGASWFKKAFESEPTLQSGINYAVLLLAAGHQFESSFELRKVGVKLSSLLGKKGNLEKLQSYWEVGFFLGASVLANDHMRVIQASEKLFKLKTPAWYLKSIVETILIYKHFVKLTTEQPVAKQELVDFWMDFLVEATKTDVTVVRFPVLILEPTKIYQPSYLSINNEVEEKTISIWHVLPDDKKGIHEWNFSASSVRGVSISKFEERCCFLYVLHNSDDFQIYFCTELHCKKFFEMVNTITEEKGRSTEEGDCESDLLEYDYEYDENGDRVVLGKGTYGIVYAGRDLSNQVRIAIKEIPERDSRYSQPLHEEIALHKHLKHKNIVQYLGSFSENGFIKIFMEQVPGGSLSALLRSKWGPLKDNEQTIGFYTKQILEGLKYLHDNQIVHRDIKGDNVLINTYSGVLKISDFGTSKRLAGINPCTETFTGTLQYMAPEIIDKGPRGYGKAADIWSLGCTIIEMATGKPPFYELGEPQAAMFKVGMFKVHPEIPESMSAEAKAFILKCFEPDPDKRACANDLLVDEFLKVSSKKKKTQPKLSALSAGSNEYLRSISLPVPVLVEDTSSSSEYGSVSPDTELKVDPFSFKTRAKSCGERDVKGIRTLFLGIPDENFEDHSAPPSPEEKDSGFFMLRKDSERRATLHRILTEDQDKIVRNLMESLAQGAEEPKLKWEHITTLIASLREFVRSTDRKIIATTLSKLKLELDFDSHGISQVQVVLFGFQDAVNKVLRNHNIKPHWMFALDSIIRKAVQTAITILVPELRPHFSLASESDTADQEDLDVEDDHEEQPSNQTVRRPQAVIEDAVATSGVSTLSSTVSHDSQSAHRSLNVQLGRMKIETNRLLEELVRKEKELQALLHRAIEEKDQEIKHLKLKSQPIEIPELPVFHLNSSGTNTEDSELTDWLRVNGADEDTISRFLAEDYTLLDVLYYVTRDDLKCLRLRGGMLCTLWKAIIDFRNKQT

B2 bradykinin receptor = B2 bradykinin receptor (Homo sapiens, UniProt P30411); test: Selectivity interaction (Bradykinin 2 receptor binding assay, human recombinant ) EUB0000877a BDKRB2
[3] = target: T2, Serine/threonine-protein kinase 3 (Homo sapiens) (UniProt Q13188); details: at 10 µM
T2 sequence (whole entry): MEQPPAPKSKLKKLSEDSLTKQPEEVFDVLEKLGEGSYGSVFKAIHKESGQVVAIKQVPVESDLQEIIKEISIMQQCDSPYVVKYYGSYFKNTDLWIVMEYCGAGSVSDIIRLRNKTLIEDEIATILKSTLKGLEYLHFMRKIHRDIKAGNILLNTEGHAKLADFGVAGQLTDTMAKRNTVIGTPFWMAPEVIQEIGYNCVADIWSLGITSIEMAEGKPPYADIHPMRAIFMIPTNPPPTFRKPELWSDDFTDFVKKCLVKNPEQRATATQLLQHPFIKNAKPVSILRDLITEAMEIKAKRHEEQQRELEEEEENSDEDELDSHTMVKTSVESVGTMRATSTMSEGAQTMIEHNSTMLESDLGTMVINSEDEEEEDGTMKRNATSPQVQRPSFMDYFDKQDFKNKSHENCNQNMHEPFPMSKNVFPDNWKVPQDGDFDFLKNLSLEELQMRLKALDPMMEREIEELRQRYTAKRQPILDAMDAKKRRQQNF

Chain of B2 bradykinin receptor (P30411 whole entry): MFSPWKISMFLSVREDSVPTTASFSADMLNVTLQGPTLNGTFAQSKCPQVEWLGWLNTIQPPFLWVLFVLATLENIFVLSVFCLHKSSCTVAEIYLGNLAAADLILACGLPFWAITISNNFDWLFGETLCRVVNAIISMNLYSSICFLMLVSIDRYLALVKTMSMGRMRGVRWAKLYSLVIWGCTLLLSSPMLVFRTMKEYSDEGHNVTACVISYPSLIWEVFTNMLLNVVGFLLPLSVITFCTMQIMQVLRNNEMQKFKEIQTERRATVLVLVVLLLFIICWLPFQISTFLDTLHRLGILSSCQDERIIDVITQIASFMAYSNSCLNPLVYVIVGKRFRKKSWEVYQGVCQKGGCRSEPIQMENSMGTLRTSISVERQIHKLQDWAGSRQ
Chain of Serine/threonine-protein kinase 32B (Homo sapiens) (Q9NY57 whole entry): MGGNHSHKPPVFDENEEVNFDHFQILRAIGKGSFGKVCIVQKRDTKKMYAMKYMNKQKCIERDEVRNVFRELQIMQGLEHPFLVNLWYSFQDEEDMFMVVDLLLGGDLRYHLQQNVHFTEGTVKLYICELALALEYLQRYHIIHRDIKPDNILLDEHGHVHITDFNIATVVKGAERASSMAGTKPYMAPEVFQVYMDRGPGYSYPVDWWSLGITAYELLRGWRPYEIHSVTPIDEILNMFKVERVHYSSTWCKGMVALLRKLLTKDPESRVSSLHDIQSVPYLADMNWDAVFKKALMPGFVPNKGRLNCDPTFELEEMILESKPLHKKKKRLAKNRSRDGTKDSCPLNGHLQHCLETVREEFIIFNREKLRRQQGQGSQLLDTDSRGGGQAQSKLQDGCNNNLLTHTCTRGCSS

Structure (SMILES): COc1cc(N(C)c2ccnc3ccc(C(F)(F)F)cc23)cc(OC)c1OC
- % binding [1]: 100%

Structure (SMILES): COCC(=O)NC/C=C/c1ccc2ncnc(Nc3ccc(Oc4ccc(C)nc4)c(C)c3)c2c1 [CP-724714]
- % of control [2]: 90%

Structure (SMILES): CCC(=O)N1CC[C@H](Nc2ncnc3c2CN(c2cnc(OC)c(C(F)(F)F)c2)CC3)C1 [LENIOLISIB]
- IC50 (B2 bradykinin receptor): > 30 µM

Structure (SMILES): CCN(CC)CCCCNc1ncc2cc(-c3cc(OC)cc(OC)c3)c(NC(=O)NC(C)(C)C)nc2n1
- % of control [3]: 100%
